{"source": "ChEMBL document CHEMBL5338723", "about": "“Emerging Target-Directed Approaches for the Treatment and Diagnosis of Microbial Infections” (J Med Chem, 2023)", "key": {"Acinetobacter baumannii [1]": {"system": "Acinetobacter baumannii", "test": "Antimicrobial activity against Acinetobacter baumannii ATCC 17978 assessed as microbial growth inhibition under iron-deficient condition", "assay_type": "functional"}, "Salmonella typhimurium": {"system": "Salmonella typhimurium", "test": "Antimicrobial activity against Salmonella enterica subsp. enterica serovar Typhimurium assessed as increase in microbial growth inhibition", "assay_type": "functional"}, "Salmonella enteritidis": {"system": "Salmonella enteritidis", "test": "Antimicrobial activity against Salmonella enterica subsp. enterica serovar Enteritidis assessed as increase in microbial growth inhibition", "assay_type": "functional"}, "Streptococcus pneumoniae": {"system": "Streptococcus pneumoniae", "test": "Antimicrobial activity against Streptococcus pneumoniae assessed as microbial growth inhibition", "assay_type": "functional"}, "Yersinia enterocolitica": {"system": "Yersinia enterocolitica", "test": "Antimicrobial activity against Yersinia enterocolitica assessed as microbial growth inhibition", "assay_type": "functional"}, "[2]": {"test": "Cytotoxicity against human L02 assessed as lethal dose", "assay_type": "toxicity, cell-based", "conditions": "L02 cells, read-out: LD50 (the source's name)"}, "Staphylococcus aureus [3]": {"system": "Staphylococcus aureus", "test": "Antibacterial activity against Staphylococcus aureus assessed as microbial growth inhibition", "assay_type": "functional, organism-based"}, "Staphylococcus aureus [4]": {"system": "Staphylococcus aureus", "test": "Potency index, ratio of ciprofloxacin MIC to test compound MIC for antimicrobial activity against Staphylococcus aureus", "assay_type": "functional, organism-based"}, "Staphylococcus aureus [5]": {"system": "Staphylococcus aureus", "test": "Antimicrobial activity against methicillin-resistant Staphylococcus aureus ATCC 33591 assessed as microbial growth inhibition", "assay_type": "functional"}, "Staphylococcus aureus [6]": {"system": "Staphylococcus aureus", "test": "Antimicrobial activity against vancomycin intermediate Staphylococcus aureus assessed as microbial growth inhibition", "assay_type": "functional"}, "Enterococcus faecium": {"system": "Enterococcus faecium", "test": "Antimicrobial activity against vancomycin-resistant Enterococcus faecium ATCC 51559 assessed as microbial growth inhibition", "assay_type": "functional"}, "Enterococcus faecalis": {"system": "Enterococcus faecalis", "test": "Antimicrobial activity against vancomycin-resistant Enterococcus faecalis ATCC 51575 assessed as microbial growth inhibition", "assay_type": "functional"}, "Acinetobacter baumannii [7]": {"system": "Acinetobacter baumannii", "test": "Antimicrobial activity against Acinetobacter baumannii ATCC 17961 assessed as microbial growth inhibition", "assay_type": "functional"}, "Acinetobacter baumannii [8]": {"system": "Acinetobacter baumannii", "test": "Antimicrobial activity against Acinetobacter baumannii ATCC BAA 1800 assessed as microbial growth inhibition", "assay_type": "functional"}, "Acinetobacter baumannii [9]": {"system": "Acinetobacter baumannii", "test": "Antimicrobial activity against Acinetobacter baumannii ATCC BAA 1793 assessed as microbial growth inhibition", "assay_type": "functional"}, "Acinetobacter baumannii [10]": {"system": "Acinetobacter baumannii", "test": "Antimicrobial activity against Acinetobacter baumannii ARC 3486 assessed as microbial growth inhibition", "assay_type": "functional"}, "Acinetobacter baumannii [11]": {"system": "Acinetobacter baumannii", "test": "Antimicrobial activity against Acinetobacter baumannii ARC 3484 assessed as microbial growth inhibition", "assay_type": "functional"}, "Acinetobacter baumannii [12]": {"system": "Acinetobacter baumannii", "test": "Antimicrobial activity against Acinetobacter baumannii ARC 5081 assessed as microbial growth inhibition", "assay_type": "functional"}, "Acinetobacter baumannii [13]": {"system": "Acinetobacter baumannii", "test": "Antimicrobial activity against Acinetobacter baumannii ATCC 17978 pNT165 producing carbapenamase assessed as microbial growth inhibition", "assay_type": "functional"}, "Acinetobacter baumannii [14]": {"system": "Acinetobacter baumannii", "test": "Antimicrobial activity against Acinetobacter baumannii ATCC 17978 assessed as microbial growth inhibition", "assay_type": "functional"}, "Acinetobacter baumannii [15]": {"system": "Acinetobacter baumannii", "test": "Antimicrobial activity against Acinetobacter baumannii ATCC 17978 pNT320 producing cephalosporinase assessed as microbial growth inhibition", "assay_type": "functional"}, "Acinetobacter baumannii [16]": {"system": "Acinetobacter baumannii", "test": "Antimicrobial activity against Acinetobacter baumannii ATCC BAA 1797 assessed as microbial growth inhibition", "assay_type": "functional"}, "Acinetobacter baumannii [17]": {"system": "Acinetobacter baumannii", "test": "Antimicrobial activity against Acinetobacter baumannii ATCC 17978 pNT221 assessed as microbial growth inhibition", "assay_type": "functional"}, "Acinetobacter baumannii [18]": {"system": "Acinetobacter baumannii", "test": "Antimicrobial activity against Acinetobacter baumannii ARC 5079 assessed as microbial growth inhibition", "assay_type": "functional"}, "Acinetobacter baumannii [19]": {"system": "Acinetobacter baumannii", "test": "Antimicrobial activity against Acinetobacter baumannii ATCC BAA 1710 assessed as microbial growth inhibition", "assay_type": "functional"}, "Acinetobacter baumannii [20]": {"system": "Acinetobacter baumannii", "test": "Antimicrobial activity against Acinetobacter baumannii ATCC 17978 pNT255 assessed as microbial growth inhibition", "assay_type": "functional"}}}
{"compound": "N[C@@H](C(=O)N[C@@H]1C(=O)N2C(C(=O)O)=C(Cl)CS[C@H]12)c1ccccc1", "note": "[CEFACLOR ANHYDROUS]", "values": [{"measurement": "MIC", "setting": "Acinetobacter baumannii [1]", "result": 64, "unit": "µg/mL"}]}
{"compound": "CC1(C)S[C@@H]2[C@H](NC(=O)[C@H](NC(=O)CCCc3cn(CCOCCOCCOCCNC(=O)c4cc(O)c(O)c(C(=O)N[C@H]5COC(=O)[C@@H](NC(=O)c6cccc(O)c6O)COC(=O)[C@@H](NC(=O)c6cccc(O)c6O)COC5=O)c4)nn3)c3ccccc3)C(=O)N2[C@H]1C(=O)O", "values": [{"measurement": "MIC", "setting": "Salmonella typhimurium", "result": 0.01, "unit": "µM"}, {"measurement": "MIC", "setting": "Salmonella enteritidis", "result": 0.01, "unit": "µM"}]}
{"compound": "CC1(C)S[C@@H]2[C@H](NC(=O)[C@H](NC(=O)CCCc3cn(CCOCCOCCOCCNC(=O)c4cc(O)c(O)c(C(=O)N[C@H]5COC(=O)[C@@H](NC(=O)c6cc([C@@H]7O[C@H](CO)[C@@H](O)[C@H](O)[C@H]7O)cc(O)c6O)COC(=O)[C@@H](NC(=O)c6cc([C@@H]7O[C@H](CO)[C@@H](O)[C@H](O)[C@H]7O)cc(O)c6O)COC5=O)c4)nn3)c3ccccc3)C(=O)N2[C@H]1C(=O)O", "values": [{"measurement": "MIC", "setting": "Salmonella typhimurium", "result": 0.01, "unit": "µM"}, {"measurement": "MIC", "setting": "Salmonella enteritidis", "result": 0.01, "unit": "µM"}]}
{"compound": "CN(Cc1cnc2nc(N)nc(N)c2n1)c1ccc(C(=O)N[C@@H](CCC(=O)O)C(=O)O)cc1", "note": "[METHOTREXATE]", "values": [{"measurement": "MIC", "setting": "Streptococcus pneumoniae", "result": "≥ 2.2", "unit": "µM"}, {"measurement": "MIC", "setting": "Yersinia enterocolitica", "result": "> 35.2", "unit": "µM"}, {"measurement": "CC50", "setting": "[2]", "result": 8, "unit": "nM"}]}
{"compound": "Galbofloxacin", "values": [{"measurement": "MIC", "setting": "Staphylococcus aureus [3]", "result": 0.093, "unit": "µM"}, {"measurement": "Ratio", "setting": "Staphylococcus aureus [4]", "result": 10}]}
{"compound": "CC1=C(C(=O)O)N2C(=O)[C@@H](NC(=O)[C@H](NC(=O)CCCc3cn(CCOCCOCCOCCNC(=O)c4cc(O)c(O)c(C(=O)N[C@H]5COC(=O)[C@@H](NC(=O)c6cc([C@@H]7O[C@H](CO)[C@@H](O)[C@H](O)[C@H]7O)cc(O)c6O)COC(=O)[C@@H](NC(=O)c6cc([C@@H]7O[C@H](CO)[C@@H](O)[C@H](O)[C@H]7O)cc(O)c6O)COC5=O)c4)nn3)c3ccccc3)[C@H]2SC1", "values": [{"measurement": "MIC", "setting": "Salmonella typhimurium", "result": 0.01, "unit": "µM"}, {"measurement": "MIC", "setting": "Salmonella enteritidis", "result": 0.01, "unit": "µM"}]}
{"compound": "CN[C@H](CC(C)C)C(=O)N[C@H]1C(=O)N[C@@H](CC(N)=O)C(=O)N[C@H]2C(=O)N[C@H]3C(=O)N[C@H](C(=O)N[C@H](C(=O)NCCCNC(=O)[C@H](O)[C@@H](O)[C@H](O)[C@H](O)CO)c4cc(O)cc(O)c4-c4cc3ccc4O)[C@H](O)c3ccc(c(Cl)c3)Oc3cc2cc(c3O[C@@H]2O[C@H](CO)[C@@H](O)[C@H](O)[C@H]2O[C@H]2C[C@](C)(N)[C@H](O)[C@H](C)O2)Oc2ccc(cc2Cl)[C@H]1O", "values": [{"measurement": "MIC", "setting": "Staphylococcus aureus [5]", "result": 0.6, "unit": "µM"}, {"measurement": "MIC", "setting": "Staphylococcus aureus [6]", "result": 0.9, "unit": "µM"}, {"measurement": "MIC", "setting": "Enterococcus faecium", "result": 54, "unit": "µM"}, {"measurement": "MIC", "setting": "Enterococcus faecalis", "result": 60, "unit": "µM"}]}
{"compound": "C[C@H]1OC(c2cccc(O)c2O)=N[C@@H]1C(=O)N[C@@H](COC(=O)c1cccc(O)c1O)C(=O)NCCCCN(O)C(=O)N[C@@H](C(=O)N[C@@H]1C(=O)N2C(C(=O)O)=C(Cl)CS[C@H]12)c1ccccc1", "values": [{"measurement": "MIC", "setting": "Acinetobacter baumannii [1]", "result": 0.5, "unit": "µg/mL"}]}
{"compound": "C[C@H]1OC(c2cccc(O)c2O)=N[C@@H]1C(=O)N[C@@H](COC(=O)c1cc(N[C@@H](C(=O)N[C@@H]2C(=O)N3C(C(=O)O)=C(Cl)CS[C@H]23)c2ccccc2)cc(O)c1O)C(=O)NCCCCN(O)C=O", "values": [{"measurement": "MIC", "setting": "Acinetobacter baumannii [1]", "result": 0.5, "unit": "µg/mL"}]}
{"compound": "CCCCCCCCCC(=O)N[C@@H](Cc1c[nH]c2ccccc12)C(=O)N[C@H](CC(N)=O)C(=O)N[C@@H](CC(=O)O)C(=O)N[C@@H]1C(=O)NCC(=O)N[C@@H](CCCNC(=O)CCCC(=O)N(O)CCCCCNC(=O)CCCN(CCCCNC(=O)c2cccc(O)c2O)CCCNC(=O)c2cccc(O)c2O)C(=O)N[C@@H](CC(=O)O)C(=O)N[C@H](C)C(=O)N[C@@H](CC(=O)O)C(=O)NCC(=O)N[C@H](CO)C(=O)N[C@@H](C(C)CC(=O)O)C(=O)N[C@@H](CC(=O)c2ccccc2N)C(=O)O[C@@H]1C", "note": "(some centres not stated)", "values": [{"measurement": "MIC", "setting": "Acinetobacter baumannii [7]", "result": 0.2, "unit": "µM"}, {"measurement": "MIC", "setting": "Acinetobacter baumannii [8]", "result": 0.2, "unit": "µM"}, {"measurement": "MIC", "setting": "Acinetobacter baumannii [9]", "result": 0.2, "unit": "µM"}, {"measurement": "MIC", "setting": "Acinetobacter baumannii [10]", "result": 0.2, "unit": "µM"}, {"measurement": "MIC", "setting": "Acinetobacter baumannii [11]", "result": 0.2, "unit": "µM"}, {"measurement": "MIC", "setting": "Acinetobacter baumannii [12]", "result": 0.2, "unit": "µM"}, {"measurement": "MIC", "setting": "Acinetobacter baumannii [13]", "result": 0.2, "unit": "µM"}, {"measurement": "MIC", "setting": "Acinetobacter baumannii [14]", "result": 0.2, "unit": "µM"}, {"measurement": "MIC", "setting": "Acinetobacter baumannii [15]", "result": 0.2, "unit": "µM"}, {"measurement": "MIC", "setting": "Acinetobacter baumannii [16]", "result": 0.2, "unit": "µM"}, {"measurement": "MIC", "setting": "Acinetobacter baumannii [17]", "result": 0.2, "unit": "µM"}, {"measurement": "MIC", "setting": "Acinetobacter baumannii [18]", "result": 0.2, "unit": "µM"}, {"measurement": "MIC", "setting": "Acinetobacter baumannii [19]", "result": 0.2, "unit": "µM"}, {"measurement": "MIC", "setting": "Acinetobacter baumannii [20]", "result": 0.2, "unit": "µM"}]}
